Measured values published in patent US7452880B2, “Substituted pyrazolo [3,4-d] pyrimidines and methods of using the same” (priority 2004, dated 2008).

Assays:
p38 MAP kinase = biological target: T1, p38 MAP kinase (Homo sapiens, UniProt Q16539); assay: p38 (MAP) kinase in vitro assay (transfer of γ-33P-phosphate from ATP to Myelin Basic Protein); assay type: biochemical; details: phosphorylated recombinant p38 MAP kinase, MBP substrate, γ-33P-ATP, 30° C.
T1 construct: made in house; host or cells: E. coli (co-expressed with SEK-1 and MEKK to obtain the phosphorylated form)
Experimental: This example illustrates a p38 (MAP) kinase in vitro assay useful for evaluating the compounds of the invention.
The p38 MAP kinase inhibitory activity of compounds of this invention in vitro was determined by measuring the transfer of the γ-phosphate from γ-^33P-ATP by p-38 kinase to Myelin Basic Protein (MBP), using a minor modification of the method described in Ahn, et al., J. Biol. Chem. 266:4220-4227 (1991).
The phosphorylated form of the recombinant p38 MAP kinase was co-expressed with SEK-1 and MEKK in E. Coli (see, Khokhlatchev, et al., J. Biol. Chem. 272:11057-11062 (1997)) and then purified by affinity chromatography using a Nickel column.
The phosphorylated p38 MAP kinase was diluted in kinase buffer (20 mM 3-(N-morpholino)propanesulfonic acid, pH 7.2, 25 mM β-glycerol phosphate, 5 mM ethylene glycol-bis(beta-aminoethyl ether)-N,N,N′,N′-tetraacetic acid, 1 mM sodium ortho-vanadate, 1 mM dithiothreitol, 40 mM magnesium chloride). Test compound dissolved in DMSO or only DMSO (control) was added and the samples were incubated for 10 min at 30° C. The kinase reaction was initiated by the addition of a substrate cocktail containing MBP and γ-^33P-ATP. […] The phosphorylated MBP was then separated from the residual γ-^33P-ATP using a phosphocellulose membrane (Millipore, Bedfrod, Mass.) and quantitated using a scintillation counter (Packard, Meriden, Conn.).

T1 sequence (Q16539 whole entry): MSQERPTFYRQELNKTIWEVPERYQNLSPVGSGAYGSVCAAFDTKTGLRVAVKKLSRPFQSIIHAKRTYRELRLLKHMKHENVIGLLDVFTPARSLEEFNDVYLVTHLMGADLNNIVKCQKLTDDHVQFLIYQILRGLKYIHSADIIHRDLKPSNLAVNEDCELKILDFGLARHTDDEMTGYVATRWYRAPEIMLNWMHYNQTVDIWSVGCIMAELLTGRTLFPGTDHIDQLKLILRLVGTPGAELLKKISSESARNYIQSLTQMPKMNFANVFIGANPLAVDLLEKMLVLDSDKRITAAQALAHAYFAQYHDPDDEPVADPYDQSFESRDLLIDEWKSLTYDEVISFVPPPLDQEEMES

IC50 (p38 MAP kinase)	melting point	SMILES
~10 nM	–	Fc1ccc(Oc2ncc3c(-c4ccccc4Cl)n[nH]c3n2)c(F)c1 [Compound 3, 3-(2-Chloro-phenyl)-6-(2,4-difluoro-phenoxy)-1H-pyrazolo[3,4-d]pyrimidine]
–	177.6 to 183.2 °C	COc1ccc(F)c(-c2n[nH]c3nc(Oc4ccc(F)cc4F)ncc23)c1 [Compound 64, 6-(2,4-Difluoro-phenoxy)-3-(2-fluoro-5-methoxy-phenyl)-1H-pyrazolo[3,4-d]pyrimidine]
–	221.3 to 223.1 °C	Clc1ccccc1Oc1ncc2c(-c3cccs3)n[nH]c2n1 [Compound 22, 6-(2-Chloro-phenoxy)-3-thiophen-2-yl-1H-pyrazolo[3,4-d]pyrimidine]
–	143.2 to 144.9 °C	COc1ccccc1-c1n[nH]c2cc(Oc3ccc(F)cc3F)cnc12 [Compound 98, 6-(2,4-Difluoro-phenoxy)-3-(2-methoxy-phenyl)-1H-pyrazolo[4,3-b]pyridine]
–	55.3 to 56.1 °C	FC(F)(F)c1ccccc1Oc1ncc2c(-c3ccccc3Cl)n[nH]c2n1 [Compound 13, 3-(2-Chloro-phenyl)-6-(2-trifluoromethyl-phenoxy)-1H-pyrazolo[3,4-d]pyrimidine]
